# According to patent publication EP0435794A1, “Alkenyl- or heteroaryl thio, sulfone, sulfoxy herbicides” (RHONE-POULENC AGROCHIMIE, priority 1989, dated 1991):
# Key:
# Type in all cases: in vivo
# [1] = test system: ORYSA SATIVA Cv Nihonbare; test: Exemple D: herbicide application on submerged plants (rice paddy model), transplanted rice; conditions: rice transplanted 4 days before treatment, 24 days
# From the text: (§1) Exemple D : Application herbicide en pré ou post levée d'espèces végétales submergées (modèle rizière)
# (§2) Dans des pots de 9 x 9 x 9 cm remplis de terre agricole on sème un nombre de graines ou on plante un nombre de bulbes ou rhizomes déterminé en fonction de l'espèce végétale ou de la grosseur des organes. Pour le riz, 4 plants au stade 2-3 feuilles sont transplantés dans un pot rempli de terre végétale 4 jours avant le traitement.
# (§3) Les pots sont ensuite immergés dans un bac de taille adapté aux pots de manière à ce que l'eau recouvre de 1 à 2 cm la surface du sol.
# (§4) Le stade de traitement est le stade prélevée ou 1 à 2 feuilles développées des adventices. Le traitement est effectué par répartition de la bouillie dans l'eau de submersion en quantité correspondant à une dose d'application de 500 l/ha et contenant la matière active à la concentration requise.
# (§5) La bouillie utilisée pour le traitement est une solution ou suspension de la matière active dans un mélange acétone/eau en proportion 50/50, en présence de 0,05 % en poids de Cemulsol NP 10 (agent tensioactif constitué d'alkylphénol polyéthoxylé, notamment de nonylphénol polyéthoxylé) et 0,04 % en poids de tween 20 (agent tensio-actif constitué d'un oléate de dérivé polyoxyéthyléné du sorbitol).
# (§6) Dans le cas d'une suspension, celle-ci est obtenue en mélangeant et broyant les ingrédients dans un microniseur de façon à obtenir une grosseur moyenne de particules inférieures à 40 microns.
# (§7) Le niveau d'eau de submersion est ensuite maintenu par apport d'eau tout au long de la durée de l'expérimentation soit […]. Les bacs contenant les pots sont placés dans une serre régulée en température à 18°C la nuit et 22°C le jour et en humidité à 70 % d'humidité relative.
# (§8) Au bout de 24 jours, on compte le nombre de plantes vivantes dans les pots traités par la bouillie contenant la matière active à tester et le nombre de plantes vivantes dans un pot témoin traité selon les mêmes conditions, mais au moyen d'une bouillie ne contenant pas de matière active. On mesure ainsi un pourcentage (D) des destructions du nombre de pieds dans le pot traité par rapport au nombre de plantes dans les pots non traités (témoin). On mesure, sur les plantes traitées restantes, le pourcentage de réduction de taille (RT) par rapport aux plantes témoin. Le pourcentage du volume foliaire non détruit par le produit est donc donné par la formule: ([100-D] x [100-RT])/(100)= A [formula]
# (§9) Cette valeur A est transformée en notation de 0 à 5 selon l'échelle suivante:
# (§10) Les résultats obtenus sont présentés dans le tableau suivant pour des doses d'application de 500, 1000 ou 2000 g de matière active par hectare.
# COMPOSE N°5/RIZ (transplanté 4 jours avant traitement)
# CYPERUS SEROTINUS = test: Exemple D: herbicide application pre or post emergence on submerged plants (rice paddy model); conditions: 24 days; for % d'efficacité CYPERUS SEROTINUS (1 feuille): 1-leaf stage; for % d'efficacité CYPERUS SEROTINUS (prélevée): pre-emergence
# From the text: as §1, §2, §3, §4, §5, §6, §7, §8, §9, §10
# ALISMA CANALICULATUM = test: as above; conditions: 2-leaf stage, 24 days
# From the text: as §1, §2, §3, §4, §5, §6, §7, §8, §9, §10
# Echinochloa crus galli [2] = test: as above; conditions: 24 days; for % d'efficacité ECHINOCHLOA CRUS GALLI (1 feuille): 1-leaf stage; for % d'efficacité ECHINOCHLOA CRUS GALLI (prélevée): pre-emergence
# From the text: as §1, §2, §3, §4, §5, §6, §7, §8, §9, §10
# Avena fatua = test: Exemple A: herbicide application, pre-emergence; conditions: dose 4 Kg m.a./ha, notation 0 à 5 after 24 days
# From the text: (§11) Exemple A - Application herbicide, en prélevée des espèces végétales
# (§12) Dans des pots de 7 x 7 x 8 cm remplis de terre agricole légère, on sème un nombre de graines déterminé en fonction de l'espèce végétale et de la grosseur de la graine.
# (§13) Les pots sont traités par pulvérisation de bouillie en quantité correspondant à une dose volumique d'application de 500 l/ha et contenant la matière active à la concentration désirée.
# (§14) Le traitement avec la bouillie est donc effectué sur des graines non recouvertes de terre (on utilise le terme de bouillie pour désigner, en général, les compositions diluées à l'eau, telles qu'on les applique sur les végétaux).
# as §5, with “proportions” for “proportion”, “cemulsol” for “Cemulsol”, “tensio-actif)” for “tensioactif”
# (§15) Dans le cas d'une suspension, celle-ci est obtenue en mélangeant et broyant les ingrédients dans un microniseur de façon à obtenir une grosseur moyenne de particules inférieure à 40 microns.
# (§16) Après traitement, on recouvre les graines d'une couche de terre d'environ 3 mm d'épaisseur.
# (§17) Les pots sont alors placés dans des bacs destinés à recevoir l'eau d'arrosage, en subirrigation, et maintenus pendant 24 jours à température ambiante sous 70 % d'humidité relative.
# (§18) Le relevé est effectué de la façon suivante:
# (§19) Au bout de 24 jours, on mesure un pourcentage (D) des destructions du nombre de pieds dans le pot traité par rapport au nombre de plantes dans les pots non traités (témoin). On mesure, sur les plantes traitées restantes, le pourcentage de réduction de taille (RT) par rapport aux plantes témoin.
# (§20) Le pourcentage du volume foliaire non détruit par le produit est donc donné par la formule: ([100-D] x [100-RT])/(100)= A [formula]
# as §9
# (§21) Les résultats obtenus sont présentés après l'exemple B pour des doses d'application de 4000 g/ha à 1000 g/ha.
# (§22) Les espèces végétales utilisées dans ces exemples A et B sont: […]
# Digitaria sanguinalis = test: Exemple A: herbicide application, pre-emergence; conditions: dose 4 Kg m.a./ha, notation 0 à 5 after 24 days
# From the text: as §11, §12, §13, §14
# as §5, with “proportions” for “proportion”, “cemulsol” for “Cemulsol”, “tensio-actif)” for “tensioactif”
# as §15, §16, §17, §18, §19, §20, §9, §21, §22
# Alopecurus myosuroïdes = test: Exemple A: herbicide application, pre-emergence; conditions: dose 4 Kg m.a./ha, notation 0 à 5 after 24 days
# From the text: as §11, §12, §13, §14
# as §5, with “proportions” for “proportion”, “cemulsol” for “Cemulsol”, “tensio-actif)” for “tensioactif”
# as §15, §16, §17, §18, §19, §20, §9, §21, §22
# Cyperus esculentus = test: Exemple A: herbicide application, pre-emergence; conditions: dose 4 Kg m.a./ha, notation 0 à 5 after 24 days
# From the text: as §11, §12, §13, §14
# as §5, with “proportions” for “proportion”, “cemulsol” for “Cemulsol”, “tensio-actif)” for “tensioactif”
# as §15, §16, §17, §18, §19, §20, §9, §21, §22
# Echinochloa crus galli [3] = test: Exemple A: herbicide application, pre-emergence; conditions: dose 4 Kg m.a./ha, notation 0 à 5 after 24 days
# From the text: as §11, §12, §13, §14
# as §5, with “proportions” for “proportion”, “cemulsol” for “Cemulsol”, “tensio-actif)” for “tensioactif”
# as §15, §16, §17, §18, §19, §20, §9, §21, §22
# [4] = 500 g de matière active par hectare
# [5] = 1000 g de matière active par hectare
# [6] = 2000 g de matière active par hectare
SMILES,"% d'efficacité ORYSA SATIVA Cv Nihonbare [1, 4]","% d'efficacité ORYSA SATIVA Cv Nihonbare [1, 5]",% d'efficacité CYPERUS SEROTINUS (1 feuille) (CYPERUS SEROTINUS; [4]),% d'efficacité CYPERUS SEROTINUS (1 feuille) (CYPERUS SEROTINUS; [5]),% d'efficacité CYPERUS SEROTINUS (prélevée) (CYPERUS SEROTINUS; [4]),% d'efficacité CYPERUS SEROTINUS (prélevée) (CYPERUS SEROTINUS; [5]),% d'efficacité ALISMA CANALICULATUM (2 feuilles) (ALISMA CANALICULATUM; [4]),% d'efficacité ALISMA CANALICULATUM (2 feuilles) (ALISMA CANALICULATUM; [5]),% d'efficacité ECHINOCHLOA CRUS GALLI (1 feuille) (Echinochloa crus galli [2]; [4]),% d'efficacité ECHINOCHLOA CRUS GALLI (1 feuille) (Echinochloa crus galli [2]; [5]),% d'efficacité ECHINOCHLOA CRUS GALLI (prélevée) (Echinochloa crus galli [2]; [4]),% d'efficacité ECHINOCHLOA CRUS GALLI (prélevée) (Echinochloa crus galli [2]; [5]),other results
"CCCCOCN(C(=O)CCl)c1c(CC)cccc1CC [Butachlor, reference compound]",0 (90 à 100),0 (90 à 100),0 (90 à 100),1 (70 à 90),0 (90 à 100),1 (70 à 90),4 (10 à 30),5 (0 à 10),1 (70 à 90),4 (10 à 30),5 (0 à 10),5 (0 à 10),
"C=C(CS(=O)(=O)c1sccc1Cl)c1cccc(F)c1 [compound 5, 1-[(3-chloro 2-thiényl)sulfonyl] 2-(3-fluorophényl) 2-propène]",0 (90 à 100),0 (90 à 100),3 (30 à 50),4 (10 à 30),2 (50 à 70),5 (0 à 10),3 (30 à 50),4 (10 à 30),4 (10 à 30),4 (10 à 30),5 (0 à 10),5 (0 à 10),"% d'efficacité ORYSA SATIVA Cv Nihonbare [1, 6]: 0 (90 à 100); % d'efficacité CYPERUS SEROTINUS (1 feuille) (CYPERUS SEROTINUS; [6]): 5 (0 à 10); % d'efficacité CYPERUS SEROTINUS (prélevée) (CYPERUS SEROTINUS; [6]): 5 (0 à 10); % d'efficacité ALISMA CANALICULATUM (2 feuilles) (ALISMA CANALICULATUM; [6]): 4 (10 à 30); % d'efficacité ECHINOCHLOA CRUS GALLI (1 feuille) (Echinochloa crus galli [2]; [6]): 4 (10 à 30); % d'efficacité ECHINOCHLOA CRUS GALLI (prélevée) (Echinochloa crus galli [2]; [6]): 5 (0 à 10); ACTIVITE HERBICIDE DE PRELEVEE AVE (Avena fatua): 5 (O à 10); ACTIVITE HERBICIDE DE PRELEVEE DIG (Digitaria sanguinalis): 5 (O à 10); ACTIVITE HERBICIDE DE PRELEVEE ALO (Alopecurus myosuroïdes): 5 (O à 10); ACTIVITE HERBICIDE DE PRELEVEE CYP (Cyperus esculentus): 5 (O à 10); ACTIVITE HERBICIDE DE PRELEVEE ECH (Echinochloa crus galli [3]): 5 (O à 10)"
